Where a name gives a salt, the structure may show the parent alone.

One assay addresses T1, ACC1 from rat liver (Rattus norvegicus, UniProt P11497).
T1 construct: The livers (for ACC1 preparation) or skeletal muscle tissue (for ACC2 preparation) are removed; from tissue; host or cells: liver of male CD rats (fasted, then fed a high sucrose diet)
Description: Direct inhibition of ACC1 activity (14C-bicarbonate incorporation). It counts as biochemical. The conditions noted are these: ACC1 from rat liver. Put shortly: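 ACC1 partially purified from livers of fasted/sucrose-refed male rats by PEG and ammonium sulfate fractionation, then preincubated 30 min at 37°C with 10 mM citrate and 1.0 mM MgCl2. Reaction ran 7 min at 37°C, stopped with HCl; acid-stable radioactivity counted by scintillation; HCl-first tubes served as blanks.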
On to `COc1cccc2c1C(=O)CC1(CCN(C(=O)c3cccc4cn[nH]c34)CC1)O2` [Ex. H20, 1′-(1H-indazol-7-ylcarbonyl)-5-methoxyspiro[chromene-2,4′-piperidin]-4(3H)-one], for which the IC50 (as a rule, the midpoint of a concentration-inhibition curve) is 2.43 µM.

The compound `O=C1CC2(CCN(C(=O)c3cc(Cl)c4[nH]ncc4c3)CC2)Oc2cc(Cl)c(F)cc21` [Ex. B10, 7-chloro-1′-[(7-chloro-1H-indazol-5-yl)carbonyl]-6-fluorospiro[chromene-2,4′-piperidin]-4(3H)-one] returned a concentration for half-maximal inhibition (IC50) of 0.209 µM. The compound `Cc1cc2c(cc1C)C(=O)CC1(CCN(C(=O)c3ccc4[nH]c(-c5ccccn5)nc4c3)CC1)O2` [Ex. L26, 6,7-dimethyl-1′-[(2-pyridin-2-yl-1H-benzimidazol-5-yl)carbonyl]spiro[chromene-2,4′-piperidin]-4(3H)-one trifluoroacetic acid salt] displayed an IC50 of 0.0635 µM. Same read-out and setting: under `O=C1CC2(CCN(C(=O)c3cccc4cn[nH]c34)CC2)Oc2cc(F)ccc21` [Ex. H19, 7-fluoro-1′-(1H-indazol-7-ylcarbonyl)spiro[chromene-2,4′-piperidin]-4(3H)-one] stands 2.35 µM. Turning to `Cc1cc2c(cc1C)C(=O)CC1(CCN(C(=O)c3ccc4nc(-c5ccncc5)[nH]c4c3)CC1)O2` [Ex. L36, 6,7-dimethyl-1′-[(2-pyridin-4-yl-1H-benzimidazol-6-yl)carbonyl]spiro[chromene-2,4′-piperidin]-4(3H)-one trifluoroacetic acid salt], the 50% inhibitory concentration (IC50) came out at 0.0507 µM. `CNC(=O)c1ccc2c(c1)C(=O)CC1(CCN(C(=O)c3cc(C)c4[nH]ncc4c3)CC1)O2` [Ex. A5, N-methyl-1′-[(7-methyl-1H-indazol-5-yl)carbonyl]-4-oxo-3,4-dihydrospiro[chromene-2,4′-piperidine]-6-carboxamide] came in with a half-maximal inhibitory concentration (IC50) of 0.0295 µM. On the same count and under the same terms, under `Cc1cc(C(=O)N2CCC3(CC2)CC(=O)c2cc(C(=O)O)ccc2O3)cc2cn[nH]c12` [Ex. A33, 1′-[(7-methyl-1H-indazol-5-yl)carbonyl]-4-oxo-3,4-dihydrospiro[chromene-2,4′-piperidine]-6-carboxylic acid trifluoroacetic acid salt] stands 0.303 µM; under `COc1cccc2c1C(=O)CC1(CCN(C(=O)c3ccc4[nH]cc(Cl)c4c3)CC1)O2` [Ex. L10, 1′-[(3-chloro-1H-indol-5-yl)carbonyl]-5-methoxyspiro[chromene-2,4′-piperidin]-4(3H)-one], 0.101 µM.

Turning to `CCc1cc(C(=O)N2CCC3(CC2)CC(=O)c2cc(OC)ccc2O3)cc2cn[nH]c12` [Ex. C2, 1′-[(7-ethyl-1H-indazol-5-yl)carbonyl]-6-methoxyspiro[chromene-2,4′-piperidin]-4(3H)-one], 0.0226 µM corresponded to half-maximal inhibition (IC50). `Cc1cc2c(cc1Cl)C(=O)CC1(CCN(C(=O)c3cccc4[nH]ncc34)CC1)O2` [Ex. J2, 6-chloro-1′-(1H-indazol-4-ylcarbonyl)-7-methylspiro[chromene-2,4′-piperidin]-4(3H)-one] came in with a 50% inhibitory concentration (IC50) of 0.375 µM. Same read-out and setting: under `Cc1cc2c(cc1C)C(=O)CC1(CCN(C(=O)c3cc(Cl)c4[nH]ncc4c3)CC1)O2` [Ex. B1, 1′-[(7-chloro-1H-indazol-5-yl)carbonyl]-6,7-dimethylspiro[chromene-2,4′-piperidin]-4(3H)-one] stands 0.0241 µM; under `Cc1cc2c(cc1Cl)C(=O)CC1(CCN(C(=O)c3ccc4[nH]ccc4c3)CC1)O2` [Ex. L8, 6-chloro-1′-(1H-indol-5-ylcarbonyl)-7-methylspiro[chromene-2,4′-piperidin]-4(3H)-one], 0.456 µM; under `Cc1cc2c(cc1Cl)C(=O)CC1(CCN(C(=O)c3cc(Br)cc4cn[nH]c34)CC1)O2` [Ex. J1, 1′-[(5-bromo-1H-indazol-7-yl)carbonyl]-6-chloro-7-methylspiro[chromene-2,4′-piperidin]-4(3H)-one], 0.345 µM. `COc1ccc2c(c1)OC1(CCN(C(=O)c3cc(Cl)c4[nH]ncc4c3)CC1)CC2=O` [Ex. B7, 1′-[(7-chloro-1H-indazol-5-yl)carbonyl]-7-methoxyspiro[chromene-2,4′-piperidin]-4(3H)-one] showed a half-maximal inhibitory concentration (IC50) of 0.166 µM.

Turning to `COc1cccc2c1C(=O)CC1(CCN(C(=O)c3ccc4c(Cl)c[nH]c4c3)CC1)O2` [Ex. L6, 1′-[(3-chloro-1H-indol-6-yl)carbonyl]-5-methoxyspiro[chromene-2,4′-piperidin]-4(3H)-one], the IC50 is 0.0473 µM. Same read-out and setting: under “1′-[(7-bromo-1H-indazol-6-yl)carbonyl]-6-chlorospiro[chromene-2,4′-piperidin]-4(3H)-one [Ex. G5]” stands over 1 µM. The compound `CCc1nc2cc(C(=O)N3CCC4(CC3)CC(=O)c3c(OC)cccc3O4)ccc2n1-c1cccc(OC)c1` [Ex. L31, 1′-{[2-ethyl-1-(3-methoxyphenyl)-1H-benzimidazol-5-yl]carbonyl}-5-methoxyspiro[chromene-2,4′-piperidin]-4(3H)-one] came in with an IC50 of 1.14 µM. In the case of `Cc1cc2c(cc1Cl)OC1(CCN(C(=O)c3cccc4cn[nH]c34)CC1)CC2=O` [Ex. H2, 7-chloro-1′-(1H-indazol-7-ylcarbonyl)-6-methylspiro[chromene-2,4′-piperidin]-4(3H)-one], the IC50 was 0.226 µM.

For “6-chloro-1′-[(7-chloro-1H-indazol-5-yl)carbonyl]-7-fluorospiro[chromene-2,4′-piperidin]-4(3H)-one [Ex. B13]”, the IC50 came to 0.287 µM.

For the compound `COC(=O)c1ccc2c(c1)C(=O)CC1(CCN(C(=O)c3cc(C)c4[nH]nc(C)c4c3)CC1)O2` [Ex. E4, methyl 1′-[(3,7-dimethyl-1H-indazol-5-yl)carbonyl]-4-oxo-3,4-dihydrospiro[chromene-2,4′-piperidine]-6-carboxylate], the half-inhibitory concentration (IC50) came to 0.0543 µM. On the same count and under the same terms, under `COc1cccc2c1C(=O)CC1(CCN(C(=O)c3cc(Cl)c4[nH]ncc4c3)CC1)O2` [B6, 1′-[(7-chloro-1H-indazol-5-yl)carbonyl]-5-methoxyspiro[chromene-2,4′-piperidin]-4(3H)-one] stands 0.109 µM.

Staying with this assay, now noted: Table of Examples M1-M36.
In turn, `COc1cc2c(c(OC)c1OC)C(=O)CC1(CCN(C(=O)c3cccc(-c4cc[nH]n4)c3)CC1)O2` [Ex. M21, 5,6,7-trimethoxy-1′-[3-(1H-pyrazol-3-yl)benzoyl]spiro[chromene-2,4′-piperidin]-4(3H)-one] displayed an IC50 of 0.439 µM. As to `COc1ccc2c(c1)C(=O)CC1(CCN(C(=O)c3cccc(-c4cc[nH]n4)c3)CC1)O2` [Ex. M6, 6-methoxy-1′-[3-(1H-pyrazol-3-yl)benzoyl]spiro[chromene-2,4′-piperidin]-4(3H)-one], inhibition was half-maximal at 0.129 µM (IC50). `O=C1CC2(CCN(C(=O)c3cccc(-c4cc[nH]n4)c3)CC2)Oc2cc(Cl)c(F)cc21` [Ex. M36, 7-chloro-6-fluoro-1-[3-(1H-pyrazol-3-yl)benzoyl]spiro[chromene-2,4′-piperidin]-4(3H)-one] yielded a concentration for half-maximal inhibition (IC50) of 1.99 µM. With `COc1cc(C)cc2c1C(=O)CC1(CCN(C(=O)c3cccc(-c4cc[nH]n4)c3)CC1)O2` [Ex. M1, 5-methoxy-7-methyl-1′-[3-(1H-pyrazol-3-yl)benzoyl]spiro[chromene-2,4′-piperidin]-4(3H)-one], the concentration for half-maximal inhibition (IC50) was determined as 0.0375 µM.

The same assay, now with this note: Table of Examples P1-P15.
`Cc1cc2c(cc1C)C(=O)CC1(CCN(C(=O)c3cccc(-c4ncc[nH]4)c3)CC1)O2` [Ex. P12, 1′-[3-(1H-imidazol-2-yl)benzoyl]-6,7-dimethylspiro[chromene-2,4′-piperidin]-4(3H)-one trifluoroacetic acid salt] showed a concentration for half-maximal inhibition (IC50) of 0.0739 µM.

For the origin of these results see patent US20090270435A1 (priority 2006, published 2009).
